Each structure is given as a SMILES string.

This passage reports IC50 results from BindingDB's records for doi:10.1111/cbdd.12787 (Shandong University, 2016).

Holding throughout (test): In vitro HDACs Inhibition Fluorescence Assay
The target in one assay is Histone deacetylase 1 (Homo sapiens, UniProt Q13547). The method, then: (§1) Afterincubation at 37 °C for 10 min, 40 μL of fluorogenic substrate (Boc-Lys(Ac)-AMC for HeLa nuclear extracts; Ac-Leu- GlyLyS(Ac)-AMC for HDAC1, HDAC6, and HDAC11; Ac-Leu-GlyLyS(Tfa)-AMC for HDAC4 and HDAC8) was added, and then, the mixture was incubated at 37 °C for 30 min. The mixture was stopped by addition of 100 μL of developer containing trypsin and TSA afterward. Over the next incubation at 37 °C for 20 min, fluorescence intensity was measured using a microplate reader at excitation and emission wavelengths of 390 and 460 nm, respectively.
Chain of Histone deacetylase 1 (Q13547 whole entry): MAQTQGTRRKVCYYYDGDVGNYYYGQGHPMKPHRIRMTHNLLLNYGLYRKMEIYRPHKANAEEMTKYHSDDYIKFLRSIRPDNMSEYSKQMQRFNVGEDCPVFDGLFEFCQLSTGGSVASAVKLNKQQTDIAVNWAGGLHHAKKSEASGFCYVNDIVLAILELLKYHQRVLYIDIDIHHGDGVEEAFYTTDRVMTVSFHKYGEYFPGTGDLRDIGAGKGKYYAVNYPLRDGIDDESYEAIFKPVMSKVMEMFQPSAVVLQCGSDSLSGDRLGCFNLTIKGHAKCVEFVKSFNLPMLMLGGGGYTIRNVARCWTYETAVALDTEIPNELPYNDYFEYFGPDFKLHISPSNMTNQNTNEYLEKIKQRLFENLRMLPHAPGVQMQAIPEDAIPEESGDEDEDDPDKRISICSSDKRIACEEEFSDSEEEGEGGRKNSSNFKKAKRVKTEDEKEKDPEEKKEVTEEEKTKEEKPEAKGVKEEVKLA

Another assay concerns the target T1, Histone deacetylase 11 (Homo sapiens, UniProt Q96DB2).
T1 sequence (Q96DB2 whole entry): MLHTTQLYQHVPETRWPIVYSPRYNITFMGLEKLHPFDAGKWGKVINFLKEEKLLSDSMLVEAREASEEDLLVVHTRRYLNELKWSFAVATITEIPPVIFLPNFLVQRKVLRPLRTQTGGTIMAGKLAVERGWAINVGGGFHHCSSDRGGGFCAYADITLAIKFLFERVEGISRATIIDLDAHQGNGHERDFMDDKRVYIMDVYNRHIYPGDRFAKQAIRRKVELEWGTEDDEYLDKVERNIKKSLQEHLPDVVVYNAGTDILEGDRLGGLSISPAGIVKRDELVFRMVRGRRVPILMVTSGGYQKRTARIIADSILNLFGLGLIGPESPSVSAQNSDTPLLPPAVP
The method, then:
as §1

The next assay deals with Histone deacetylase 4 (Homo sapiens, UniProt P56524). The method, then:
as §1

In another assay the target is T2, Histone deacetylase 6 (Homo sapiens, UniProt Q9UBN7).
T2 sequence (Q9UBN7 whole entry): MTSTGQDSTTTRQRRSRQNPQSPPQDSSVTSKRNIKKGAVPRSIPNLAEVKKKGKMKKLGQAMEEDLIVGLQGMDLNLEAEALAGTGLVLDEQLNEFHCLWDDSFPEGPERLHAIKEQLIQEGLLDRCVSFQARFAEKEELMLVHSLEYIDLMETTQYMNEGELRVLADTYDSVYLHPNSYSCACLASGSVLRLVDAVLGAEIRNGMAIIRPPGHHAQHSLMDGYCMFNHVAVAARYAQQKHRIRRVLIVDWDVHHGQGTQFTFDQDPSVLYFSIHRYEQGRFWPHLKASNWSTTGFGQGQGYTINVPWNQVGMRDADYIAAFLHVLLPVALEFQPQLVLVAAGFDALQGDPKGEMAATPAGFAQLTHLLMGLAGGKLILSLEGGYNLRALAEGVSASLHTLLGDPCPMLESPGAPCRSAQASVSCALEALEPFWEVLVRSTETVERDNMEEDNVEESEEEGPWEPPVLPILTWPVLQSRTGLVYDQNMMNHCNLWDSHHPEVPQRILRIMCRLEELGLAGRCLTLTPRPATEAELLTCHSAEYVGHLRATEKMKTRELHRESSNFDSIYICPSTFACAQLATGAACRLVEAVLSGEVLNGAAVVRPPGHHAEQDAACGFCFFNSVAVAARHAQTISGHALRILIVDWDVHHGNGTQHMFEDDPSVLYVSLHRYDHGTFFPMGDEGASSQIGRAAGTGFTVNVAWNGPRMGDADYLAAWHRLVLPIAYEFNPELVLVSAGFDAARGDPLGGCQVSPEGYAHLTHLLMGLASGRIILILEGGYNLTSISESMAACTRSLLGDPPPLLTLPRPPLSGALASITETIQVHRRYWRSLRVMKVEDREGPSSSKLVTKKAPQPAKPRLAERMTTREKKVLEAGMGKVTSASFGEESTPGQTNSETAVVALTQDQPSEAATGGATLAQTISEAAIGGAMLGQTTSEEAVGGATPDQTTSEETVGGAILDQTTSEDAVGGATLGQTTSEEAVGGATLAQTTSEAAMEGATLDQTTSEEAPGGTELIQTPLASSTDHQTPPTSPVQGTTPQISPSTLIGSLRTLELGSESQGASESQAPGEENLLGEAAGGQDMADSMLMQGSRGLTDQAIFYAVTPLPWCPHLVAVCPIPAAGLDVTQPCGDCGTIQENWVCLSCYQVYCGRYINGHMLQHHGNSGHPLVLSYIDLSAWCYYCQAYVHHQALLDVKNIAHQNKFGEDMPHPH
The method, then: as §1

The target of another assay is T3, Histone deacetylase 8 (Homo sapiens, UniProt Q9BY41).
T3 sequence (Q9BY41 whole entry): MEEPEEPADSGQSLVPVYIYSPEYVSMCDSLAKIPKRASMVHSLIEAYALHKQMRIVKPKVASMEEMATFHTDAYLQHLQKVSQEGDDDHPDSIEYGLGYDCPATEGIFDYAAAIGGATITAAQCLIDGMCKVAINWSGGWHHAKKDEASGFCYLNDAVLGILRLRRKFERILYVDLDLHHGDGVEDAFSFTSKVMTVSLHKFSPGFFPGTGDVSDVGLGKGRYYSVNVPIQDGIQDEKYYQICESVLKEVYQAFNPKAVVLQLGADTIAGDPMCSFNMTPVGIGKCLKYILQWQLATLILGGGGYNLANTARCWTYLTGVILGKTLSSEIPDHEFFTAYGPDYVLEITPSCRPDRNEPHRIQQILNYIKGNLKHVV
The method, then:
as §1

Chain of Histone deacetylase 4 (P56524 whole entry): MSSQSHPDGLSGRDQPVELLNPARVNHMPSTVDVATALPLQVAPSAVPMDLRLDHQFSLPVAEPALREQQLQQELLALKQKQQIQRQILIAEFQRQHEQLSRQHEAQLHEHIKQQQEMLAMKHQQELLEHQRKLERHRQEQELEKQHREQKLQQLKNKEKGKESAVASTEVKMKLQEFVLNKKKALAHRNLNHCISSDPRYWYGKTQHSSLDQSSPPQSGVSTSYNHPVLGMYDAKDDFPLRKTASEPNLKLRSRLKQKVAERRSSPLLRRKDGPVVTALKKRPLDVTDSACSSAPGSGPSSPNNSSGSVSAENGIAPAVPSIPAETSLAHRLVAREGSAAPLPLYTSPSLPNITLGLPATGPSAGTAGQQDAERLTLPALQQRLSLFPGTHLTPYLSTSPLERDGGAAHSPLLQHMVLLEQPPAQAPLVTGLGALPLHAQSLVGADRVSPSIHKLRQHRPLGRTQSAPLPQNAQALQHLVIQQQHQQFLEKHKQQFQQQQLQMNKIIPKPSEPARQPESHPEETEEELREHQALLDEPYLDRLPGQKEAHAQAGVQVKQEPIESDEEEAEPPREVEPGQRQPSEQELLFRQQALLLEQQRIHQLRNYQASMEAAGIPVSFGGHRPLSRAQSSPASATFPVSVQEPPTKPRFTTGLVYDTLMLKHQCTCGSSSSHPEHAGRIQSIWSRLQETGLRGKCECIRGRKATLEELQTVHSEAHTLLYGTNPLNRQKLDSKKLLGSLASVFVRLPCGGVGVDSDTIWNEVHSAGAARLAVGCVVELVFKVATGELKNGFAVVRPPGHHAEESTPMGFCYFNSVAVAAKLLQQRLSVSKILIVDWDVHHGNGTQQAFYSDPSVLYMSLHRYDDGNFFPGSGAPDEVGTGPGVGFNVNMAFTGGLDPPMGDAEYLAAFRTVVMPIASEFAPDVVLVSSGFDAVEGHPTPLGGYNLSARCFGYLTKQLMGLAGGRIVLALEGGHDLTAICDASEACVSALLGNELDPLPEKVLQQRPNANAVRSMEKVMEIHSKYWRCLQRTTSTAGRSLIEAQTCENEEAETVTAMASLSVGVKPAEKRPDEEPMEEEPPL

Consider `O=C(/C=C/c1cccc(S(=O)(=O)N[C@H](C(=O)Nc2cccc3ccccc23)c2ccccc2)c1)NO` [(S,E)-N-hydroxy-3-(3-(N-(2-(naphthalen-1-ylamino)-2-oxo-1-phenylethyl)sulfamoyl)phenyl)acrylamide (10s)], for which the IC50 on Histone deacetylase 1 is 93 nM; at Histone deacetylase 11, 3850 nM; against Histone deacetylase 4, 23000 nM; at Histone deacetylase 6, 80 nM; at Histone deacetylase 8 it was 659 nM.
For the molecule `O=C(/C=C/c1cccc(S(=O)(=O)Nc2ccccc2)c1)NO` [Belinostat], at Histone deacetylase 4, it took 9850 nM to reach half-maximal inhibition (IC50).
